Source: paper PMC3588010, “Effect of Human Flavin-Containing Monooxygenase 3 Polymorphism on the Metabolism of Aurora Kinase Inhibitors” (International Journal of Molecular Sciences, 2013)
Where a chain is given by its changes, count along the chain named. Names and notes keep the numbering of the source. Blank lines part the entries; values can stand above or below the molecule they belong to.

Tests used:
[1] = biological target: T1, wild type hFMO3 (Homo sapiens, UniProt P31513); experiment: N-oxygenation kinetics with purified wild-type hFMO3 (LC-MS); type: in vitro ADME
T1 construct: made in house; host or cells: E. coli JM109 (vector pJL2)
T1 sequence (P31513 1-532): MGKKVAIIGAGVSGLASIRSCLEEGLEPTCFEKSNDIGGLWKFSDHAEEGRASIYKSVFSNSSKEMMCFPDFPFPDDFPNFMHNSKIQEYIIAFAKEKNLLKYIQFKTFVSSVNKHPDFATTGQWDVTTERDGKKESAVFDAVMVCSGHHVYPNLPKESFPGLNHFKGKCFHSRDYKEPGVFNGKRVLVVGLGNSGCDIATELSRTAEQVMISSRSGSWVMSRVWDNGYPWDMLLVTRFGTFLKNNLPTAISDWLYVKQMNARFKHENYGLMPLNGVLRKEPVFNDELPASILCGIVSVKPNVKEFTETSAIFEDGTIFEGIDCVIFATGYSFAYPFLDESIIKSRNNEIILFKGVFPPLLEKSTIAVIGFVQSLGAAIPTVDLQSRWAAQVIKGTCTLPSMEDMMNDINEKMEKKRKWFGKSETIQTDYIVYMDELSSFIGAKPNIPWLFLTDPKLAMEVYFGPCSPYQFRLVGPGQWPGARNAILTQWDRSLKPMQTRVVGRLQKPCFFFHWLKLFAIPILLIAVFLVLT
Experimental: (§1) Enzymatic reactions were carried out with the purified WT and V257M polymorphic variant in the presence of NADPH and increasing amounts of each substrate as reported in the experimental section. […] The kcat and Km values for V257M were approximately half of that of the wild-type (Figure 3A,B) and the kcat for the wild-type enzyme was at least twice as much of the kcat for V257M.
(§2) The enzyme and NADPH were mixed first and the reaction was initiated by the addition of substrate, preventing thermal degradation of the enzyme. […] The incubations were terminated by the addition of 0.10 mL of ice-cold methanol and 150 μL verapamil as internal standard (IS).
(§3) Prior to LC-MS analysis the reaction mixtures were filtered through a Microcon centrifugal membrane with 3 kDa cutoff (Millipore, Billercia, MA, USA). Substrates and their metabolites were separated using Agilent 1200 HPLC (Agilent Technologies Inc., Santa Clara, CA, USA) equipped with a narrow bore reversed-phase column Zorbax Eclipse XDB-C18, 2.1 × 150 mm, 3.5 μm (Agilent Technologies, Santa Clara, CA, USA) and using a binary solvent system composed of double distilled water with 0.01% formic acid (A), and acetonitrile (ACN) with 0.1% formic acid (B) at flow rate of 0.2 mL min^−1. The initial mobile phase was composed of 20% of solvent B and it was increased to 70% over a period of 3 min and kept 4 min for isocratic separations of substrate, metabolite and internal standard (IS). Finally, the organic solvent was increased to 100% in 30 s for washing the column. Before follower injection, initial mobile phase was re-established for 10 min.
(§4) For quantitative purpose, standards and samples were analysed by LC-ESI-MS/MS in MRM mode using the above-indicated parameters. […] Spectral data were processed using data analysis software of 6300 Series Ion Trap LC/MS 4.0 (Bruker Daltonik GmbH, Bremen, Germany). Metabolite formation was quantified by comparing peak area ratios (metabolite/internal standard) of four data sets of incubations for each Michaelis-Menten curve to ratios obtained from a standard curve containing known amounts of the […].

[2] = biological target: T2, V257M hFMO3 (Homo sapiens, UniProt P31513, V257M); experiment: N-oxygenation kinetics with purified V257M polymorphic variant of hFMO3 (LC-MS); type: in vitro ADME
T2 construct: made in house; host or cells: E. coli JM109 (vector pJL2)
T2 sequence (P31513 1-532 V257M): T1 sequence (P31513 1-532) with V257M
Experimental: as §1, §2, §3, §4

[3] = substrate: CO[C@@H](C(=O)N1Cc2n[nH]c(NC(=O)c3ccc(N4CCN(C)CC4)cc3)c2C1)c1ccccc1; experiment: N-oxygenation kinetics with purified wild-type hFMO3 (LC-MS); type: in vitro ADME, human; details: other: WT hFMO3, N-oxide formation, 0.17 μM enzyme, 0.5 mM NADPH, pH 7.4, 37 °C
Experimental: as §1, §2, §3, §4

[4] = substrate: Cc1cc(Nc2cc(N3CCN(C)CC3)nc(Sc3ccc(NC(=O)C4CC4)cc3)n2)[nH]n1; experiment: as above; type: in vitro ADME, human; details: other: WT hFMO3, N-oxide formation, 0.17 μM enzyme, 0.5 mM NADPH, pH 7.4, 37 °C
Experimental: as §1, §2, §3, §4

[5] = substrate: CO[C@@H](C(=O)N1Cc2n[nH]c(NC(=O)c3ccc(N4CCN(C)CC4)cc3)c2C1)c1ccccc1; experiment: N-oxygenation kinetics with purified V257M polymorphic variant of hFMO3 (LC-MS); type: in vitro ADME, human; details: other: V257M hFMO3, N-oxide formation, 0.17 μM enzyme, 0.5 mM NADPH, pH 7.4, 37 °C
Experimental: as §1, §2, §3, §4

[6] = substrate: Cc1cc(Nc2cc(N3CCN(C)CC3)nc(Sc3ccc(NC(=O)C4CC4)cc3)n2)[nH]n1; experiment: as above; type: in vitro ADME, human; details: other: V257M hFMO3, N-oxide formation, 0.17 μM enzyme, 0.5 mM NADPH, pH 7.4, 37 °C
Experimental: as §1, §2, §3, §4

[7] = WT hFMO3, N-oxide formation, pH 7.4, 37 °C
[8] = V257M hFMO3, N-oxide formation, pH 7.4, 37 °C
[9] = V257M hFMO3, N-oxide formation, values in text

B1: wild type hFMO3 (Homo sapiens) (protein)
chain: T1 sequence (P31513 1-532)
notes: made in house; host or cells: E. coli JM109 (vector pJL2)
Km [3]: 57.3 ± 8.3 µM | kcat [3]: 0.165 ± 0.01 s⁻¹ | kcat/Km [3]: 2830 ± 500 M⁻¹ s⁻¹ | Km [4]: 23.8 ± 3.4 µM | kcat [4]: 0.155 ± 0.005 s⁻¹ | kcat/Km [4]: 6500 ± 1000 M⁻¹ s⁻¹

B2: V257M hFMO3 (Homo sapiens; V257M) (protein)
chain: T1 sequence (P31513 1-532) with V257M
notes: as for B1
Km [5]: 60.1 ± 11.4 µM | kcat [5]: 0.0533 s⁻¹ | kcat/Km [5]: 833 ± 167 M⁻¹ s⁻¹ | Km [6]: 12.9 ± 1.3 µM | kcat [6]: 0.0717 s⁻¹ | kcat/Km [6]: 5500 ± 667 M⁻¹ s⁻¹

Second part, the molecule after the results:

Vmax [1, 7]: 0.54 ± 0.02 nmol/min/mg FMO3 | kcat [1, 7]: 0.155 s⁻¹ | Vmax ([1]; wild type hFMO3, values in text): 536 pmol/min/mg FMO3 | Vmax [2, 8]: 0.25 ± 0.01 nmol/min/mg FMO3 | kcat [2, 9]: 0.0717 s⁻¹ | Vmax ([2]; V257M hFMO3, values in text): 248 pmol/min/mg FMO3
Molecule: Cc1cc(Nc2cc(N3CCN(C)CC3)nc(Sc3ccc(NC(=O)C4CC4)cc3)n2)[nH]n1 [Tozasertib]

Vmax [1, 7]: 0.57 ± 0.03 nmol/min/mg FMO3 | kcat [1, 7]: 0.165 s⁻¹ | Vmax ([1]; wild-type enzyme, values in text): 0.57 nmol min^−1 mg FMO3 | Vmax [2, 8]: 0.18 ± 0.01 nmol/min/mg FMO3 | kcat [2, 9]: 0.0533 s⁻¹ | Vmax ([2]; V257M, values in text): 0.18 nmol min^−1 mg FMO3
Molecule: CO[C@@H](C(=O)N1Cc2n[nH]c(NC(=O)c3ccc(N4CCN(C)CC4)cc3)c2C1)c1ccccc1 [Danusertib]
